# Measured values from paper PMC11383987 (bioRxiv, 2024).
# Molecular target: T1, Arabidopsis thaliana PIN8 (Arabidopsis thaliana, UniProt Q9LFP6)
# T1 sequence (Q9LFP6 1-367): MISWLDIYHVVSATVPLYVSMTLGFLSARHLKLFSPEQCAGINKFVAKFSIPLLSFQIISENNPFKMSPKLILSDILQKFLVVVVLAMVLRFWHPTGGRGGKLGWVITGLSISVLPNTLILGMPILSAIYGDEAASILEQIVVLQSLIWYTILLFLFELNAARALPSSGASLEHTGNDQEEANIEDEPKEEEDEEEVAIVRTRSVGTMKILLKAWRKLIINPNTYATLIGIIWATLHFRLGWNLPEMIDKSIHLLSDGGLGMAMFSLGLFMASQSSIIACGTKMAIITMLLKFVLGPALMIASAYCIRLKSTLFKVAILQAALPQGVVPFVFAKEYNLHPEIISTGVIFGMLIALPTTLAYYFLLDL
# Assay: SSM electrophysiology peak current response, wild-type PIN8 proteoliposomes
# Assay type: biochemical
structure (smiles),measurement,setting,value
"O=C(O)c1ccccc1C(=O)Nc1cccc2ccccc12 [NPA, 1-N-naphthylphthalamic acid]","effect of NPA on current response to 2,4-D","100 μM 2,4D in absence or presence of 20 µM NPA",inhibited
same,peak width of SSM current response at various lipid-to-protein ratios (LPR),"LPR10 vs LPR50, variation is consistent with transport",does not change
